According to patent US20110288154A1, “RNA Interference Mediated Inhibition of Epithelial Sodium Channel (ENaC) Gene Expression Using Short Interfering Nucleic Acid (siNA)” (MERCK & CO., INC., priority 2008, published 2011):
[invAb] = inverted abasic unit; m = 2'-O-methyl; r = 2'-OH (RNA); f = 2'-fluoro

How the values were obtained:
ENaCα mRNA = assay: Screening of ENaCα siNAs in human A549 cells (quantitative RT-PCR); assay type: cell-based; design: Percent Reduction of the ENaCα mRNA relative to a non-targeting control siNA (NTC): concentration or dose not given beside the values; details: for Avg ENaCα Expression / Mean (level of ENaCα expression normalized to the level of GAPDH) / Percent Reduction of the ENaCα mRNA relative to a non-targeting control siNA (NTC) / Avg GAPDH Expression: human A549 cells, n = 3; for Avg ENaCα Expression: 25 nM siNA with Lipofectamine 2000, harvested 24 hours post-transfection; for Mean (level of ENaCα expression normalized to the level of GAPDH) / Percent Reduction of the ENaCα mRNA relative to a non-targeting control siNA (NTC) / Avg GAPDH Expression: 24 hours post-transfection; for Avg GAPDH Expression: housekeeping gene used for normalisation; for IC50 / Human % KD (efficacy of ENaCα mRNA knockdown): human cell line; for IC50: dose response, read-out: Human IC50 (potency of ENaCα mRNA knockdown); for Human % KD (efficacy of ENaCα mRNA knockdown): summary
Method in brief: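 ENaCα knockdown in human A549 cells is measured by qRT-PCR (standard-curve quantitation), normalized to a non-targeting siNA control. Lipofectamine 2000 complexes deliver 25 nM siNA per well (lipid 2.33 μg/ml, held constant in dose-response); IC50 from a sigmoidal variable-slope fit.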

rSCNN1A (r ENaCα) mRNA = assay: Screening of ENaCα siNAs in Rat H-4-II-E cells (quantitative RT-PCR); assay type: cell-based; design: Percent Reduction of the r ENaCα mRNA relative to a non-targeting control siNA (NTCs) / Rat % KD (efficacy of ENaCα mRNA knockdown): concentration or dose not given beside the values; details: for Mean (rSCNN1A expression normalized to the level of rGAPDH) / Percent Reduction of the r ENaCα mRNA relative to a non-targeting control siNA (NTCs) / Avg ENaCα Expression (rSCNN1A) / Avg GAPDH Expression (rGAPDH): Rat H-4-II-E cells, n = 3; for Mean (rSCNN1A expression normalized to the level of rGAPDH) / Percent Reduction of the r ENaCα mRNA relative to a non-targeting control siNA (NTCs) / Avg GAPDH Expression (rGAPDH): 24 hours post-transfection; for Avg ENaCα Expression (rSCNN1A): harvested 24 hours post-transfection; for Avg GAPDH Expression (rGAPDH): housekeeping gene used for normalisation; for IC50 / Rat % KD (efficacy of ENaCα mRNA knockdown): rat cell line; for IC50: dose response, read-out: Rat IC50 (potency of ENaCα mRNA knockdown); for Rat % KD (efficacy of ENaCα mRNA knockdown): summary
Method in brief: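 Knockdown read-out: qRT-PCR quantified against a standard curve of same-cell-line RNA, ENaCα normalized to species housekeeping gene (GAPDH or 36B4) and expressed versus non-targeting control. Cells received lipid-complexed siNA, 25 nM final, in triplicate and were assayed at 24 h; IC50 by variable-slope sigmoidal fit.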

Substance | Avg ENaCα Expression (ENaCα mRNA) | Mean (level of ENaCα expression normalized to the level of GAPDH) (ENaCα mRNA) | Percent Reduction of the ENaCα mRNA relative to a non-targeting control siNA (NTC) (ENaCα mRNA) | Avg GAPDH Expression (ENaCα mRNA) | Mean (rSCNN1A expression normalized to the level of rGAPDH) (rSCNN1A (r ENaCα) mRNA) | Percent Reduction of the r ENaCα mRNA relative to a non-targeting control siNA (NTCs) (rSCNN1A (r ENaCα) mRNA) | Avg ENaCα Expression (rSCNN1A) (rSCNN1A (r ENaCα) mRNA) | Avg GAPDH Expression (rGAPDH) (rSCNN1A (r ENaCα) mRNA) | IC50 (ENaCα mRNA) | Human % KD (efficacy of ENaCα mRNA knockdown) (ENaCα mRNA) | IC50 (rSCNN1A (r ENaCα) mRNA) | Rat % KD (efficacy of ENaCα mRNA knockdown) (rSCNN1A (r ENaCα) mRNA)
B cccuGcuGuccAcAGuGAc TTB / GUCAcuGuGGAcAGcAGGGUU (sense CCCUGCUGUCCACAGUGACTT; antisense GUCACUGUGGACAGCAGGGUU; siRNA; sense: DNA at AGT, 2'-fluoro at CU, [invAb] at 5' end, 3' end, backbone not given here; antisense: sugars from the 5' end rrrmffmfmmmfmmfmmmmmm, backbone not given here) [Site 1121] | 72.95 | 1.65 | −6.0% | 46.89 | 0.84 | 34.6% | 19.44 | 23.01 |  |  |  | 
B cuGuGcAAccAGAAcAAAu TTB / AUUuGuucuGGuuGcAcAGUU (chain 1 CUGUGCAACCAGAACAAAUTT; chain 2 AUUUGUUCUGGUUGCACAGUU; siRNA; chain 1: DNA at AGT, 2'-fluoro at CU, [invAb] at 5' end, 3' end, backbone not given here; chain 2: sugars from the 5' end rrrfmffffmmffmfmfmmmm, backbone not given here) [Site 781] | 61.44 | 0.97 | 37.7% | 66.47 | 0.86 | 32.8% | 23.09 | 26.57 |  |  |  | 
B cuccuGuccAAccuGGGcA TTB / UGCccAGGuuGGAcAGGAGUU (sense CUCCUGUCCAACCUGGGCATT; antisense UGCCCAGGUUGGACAGGAGUU; siRNA; sense: DNA at AGT, 2'-fluoro at CU, [invAb] at 5' end, 3' end, backbone not given here; antisense: sugars from the 5' end rrrffmmmffmmmfmmmmmmm, backbone not given here) [Site 1738] | 77.23 | 0.71 | −7.4% | 108.96 | 0.63 | 31.1% | 21.90 | 35.43 |  |  |  | 
B uGGGcAGccAGuGGAGccu TTB / AGGcuccAcuGGcuGcccAUU (sense UGGGCAGCCAGUGGAGCCUTT; antisense AGGCUCCACUGGCUGCCCAUU; siRNA; sense: DNA at AGT, 2'-fluoro at CU, [invAb] at 5' end, 3' end, backbone not given here; antisense: sugars from the 5' end rrrffffmffmmffmfffmmm, backbone not given here) [Site 1751] | 63.35 | 0.49 | 25.4% | 128.83 | 0.59 | 36.0% | 26.87 | 45.19 |  |  |  | 
B uGGcuGuGccuAcAucuuc TTB / GAAGAuGuAGGcAcAGccAUU (sense UGGCUGUGCCUACAUCUUCTT; antisense GAAGAUGUAGGCACAGCCAUU; siRNA; sense: DNA at AGT, 2'-fluoro at CU, [invAb] at 5' end, 3' end, backbone not given here; antisense: sugars from the 5' end rrrmmfmfmmmfmfmmffmmm, backbone not given here) [Site 1386] | 72.05 | 0.64 | 2.8% | 112.63 | 0.48 | 48.3% | 17.21 | 36.31 |  |  |  | 
B uGuGGcuGuGccuAcAucu TTB / AGAuGuAGGcAcAGccAcAUU (sense UGUGGCUGUGCCUACAUCUTT; antisense AGAUGUAGGCACAGCCACAUU; siRNA; sense: DNA at AGT, 2'-fluoro at CU, [invAb] at 5' end, 3' end, backbone not given here; antisense: sugars from the 5' end rrrfmfmmmfmfmmffmfmmm, backbone not given here) [Site 1384] | 82.65 | 0.80 | −21.6% | 103.38 | 0.66 | 27.8% | 23.39 | 34.69 |  |  |  | 
B uGuGcAAccAGAAcAAAuc TTB / GAUuuGuucuGGuuGcAcAUU (chain 1 UGUGCAACCAGAACAAAUCTT; chain 2 GAUUUGUUCUGGUUGCACAUU; siRNA; B caps on sense ends, letter-case modifications not given here, further chemistry not given here) [Site 782] | 39.99 | 0.61 | 60.9% | 66.25 | 0.47 | 63.7% | 13.71 | 29.23 | 0.36 nM | 60-85% | 0.8 nM | 63%
B uGuccAAccuGGGcAGccA TTB / UGGcuGcccAGGuuGGAcAUU (sense UGUCCAACCUGGGCAGCCATT; antisense UGGCUGCCCAGGUUGGACAUU; siRNA; sense: DNA at AGT, 2'-fluoro at CU, [invAb] at 5' end, 3' end, backbone not given here; antisense: sugars from the 5' end rrrffmfffmmmffmmmfmmm, backbone not given here) [Site 1742] | 58.12 | 0.53 | 19.7% | 109.65 | 0.79 | 14.3% | 28.30 | 35.68 |  |  |  | 
B uccuGuccAAccuGGGcAG TTB / CUGcccAGGuuGGAcAGGAUU (sense UCCUGUCCAACCUGGGCAGTT; antisense CUGCCCAGGUUGGACAGGAUU; siRNA; sense: DNA at AGT, 2'-fluoro at CU, [invAb] at 5' end, 3' end, backbone not given here; antisense: sugars from the 5' end rrrfffmmmffmmmfmmmmmm, backbone not given here) [Site 1739] | 75.77 | 0.75 | −13.8% | 100.60 | 1.00 | −8.7% | 32.26 | 35.80 |  |  |  | 
B uuAuGGAuGAuGGuGGcuu TTB / AAGccAccAucAuccAuAAUU (sense UUAUGGAUGAUGGUGGCUUTT; antisense AAGCCACCAUCAUCCAUAAUU; siRNA; B caps on sense ends, letter-case modifications not given here, further chemistry not given here) [Site 1181] | 36.75 | 0.55 | 64.7% | 70.22 | 0.41 | 68.1% | 10.34 | 24.78 | 0.4 nM | 65-80% | 1 nM | 68%
